Test results from the supplement of paper PMC10307832.

Compound: Nc1nc2[nH]cc(CCc3ccc(C(=O)N[C@@H](CCC(=O)O)C(=O)O)cc3)c2c(=O)[nH]1 [Pemetrexed]
Assay: relative viability (nuclei count vs DMSO), 5 days (fraction); higher = more cells survive
Method in brief: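 Acceptance criteria were a control CV below 25% and at least one doubling per plate. Lung cancer cell lines in 1536-well plates got five library-drug doses (not always all listed) √10 apart by pinning and were left 5 days with no medium change. Viability divides treated-well nuclei by vehicle-well nuclei and is the median across plates. Nuclei were counted by MetaXpress from 4× Hoechst images.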

Row | Cell Line | relative viability (0.002 µM) | relative viability (0.006325 µM) | relative viability (0.02 µM) | relative viability (0.06325 µM) | relative viability (0.2 µM) | relative viability (0.2 µM, anchor plate)
1 | NCI-H2228 | 0.799 | 0.878 | 1.2 | 0.838 | 0.333 | 0.339
2 | NCI-H1915 | 0.95 | 0.976 | 1.12 | 0.982 | 0.98 | 0.507
3 | NCI-H2347 | 0.931 | 0.965 | 1.14 | 0.9 | 0.655 | 0.42
4 | HARA | 0.944 | 1.05 | 1.12 | 0.904 | 0.225 | 0.241
5 | NCI-H2085 | 0.947 | 0.979 | 1.08 | 1.03 | 0.98 | 0.921
6 | NCI-H650 | 0.851 | 0.905 | 0.987 | 0.857 | 1.02 | 0.925
7 | NCI-H727 | 0.844 | 0.931 | 0.899 | 0.958 | 0.899 | –
8 | NCI-H1993 | 0.866 | 0.995 | 0.962 | 0.896 | 0.734 | 0.592
9 | A549 | 0.938 | 0.948 | 1.09 | 0.973 | 1.01 | –
10 | EMC-BAC-2 | 0.868 | 1.04 | 1.12 | 0.966 | 0.782 | 0.444
11 | NCI-H1563 | 0.907 | 0.955 | 0.991 | 1.03 | 1.01 | 0.799
12 | NCI-H1703 | 0.917 | 0.871 | 1.39 | 1.06 | 0.92 | –
13 | NCI-H2087 | 0.926 | 0.875 | 1.15 | 1.05 | 0.639 | 0.684
14 | NCI-H1299 | 1.01 | 0.998 | 1.06 | 0.991 | 0.959 | –
15 | NCI-H441 | 0.917 | 1.01 | 1.1 | 0.688 | 0.452 | 0.255
16 | LXF-289 | 0.938 | 0.999 | 1.04 | 1.02 | 0.939 | 0.905
17 | NCI-H661 | 1 | 0.975 | 1.02 | 0.977 | 0.967 | 0.923
18 | PC-3 [JPC-3] | 0.882 | 1.1 | 1.06 | 1.04 | 0.964 | 1.16
19 | HCC-366 | 0.964 | 0.985 | 1.07 | 0.991 | – | –
20 | NCI-H522 | 1.18 | 0.999 | 0.916 | 0.868 | 1.03 | 1.03
